Here are results for two compounds from patent US20260198498A1, “FUNGICIDAL COMPOSITIONS” (SYNGENTA CROP PROTECTION AG, priority 2022, published 2026).

The subject of one assay is Pyrenophora teres. The experiment in a line: Example B18: Pyrenophora teres/Barley/Leaf Disc Preventative (Net Blotch). Format: in vivo. Particulars: foliar, barley leaf segments, inoculated 2 days after application. As to the method:
Example B18: Pyrenophora teres/Barley/Leaf Disc Preventative (Net Blotch)
Barley leaf segments cv. Hasso are placed on agar in a multiwell plate (24-well format) and sprayed with the formulated test compound diluted in water. The leaf segments are inoculated with a spore suspension of the fungus 2 days after application. The inoculated leaf segments are incubated at 20° C. and 65% rh under a light regime of 12 h light/12 h darkness in a climate cabinet and the activity of a compound is assessed as disease control compared to untreated when an appropriate level of disease damage appears in untreated check leaf segments (5-7 days after application).

Assay [1] has as its system Magnaporthe grisea (Pyricularia oryzae). Format: in vivo. Conditions: 200 ppm; rice leaf segments, preventative, inoculated 2 days after application.
Assay [2] has as its system Phaeosphaeria nodorum (Septoria nodorum). The experiment in a line: Example B11: Phaeosphaeria nodorum (Septoria nodorum)/Wheat/Leaf Disc Preventative (Glume Blotch). Format: in vivo. Particulars: Parastagonospora nodorum, foliar, wheat leaf segments, inoculated 2 days after application. As to the method:
Example B11: Phaeosphaeria nodorum (Septoria nodorum)/Wheat/Leaf Disc Preventative (Glume Blotch)
Wheat leaf segments cv. Kanzler are placed on agar in a multiwell plate (24-well format) and sprayed with the formulated test compound diluted in water. The leaf disks are inoculated with a spore suspension of the fungus 2 days after application. The inoculated test leaf disks are incubated at 20° C. and 75% rh under a light regime of 12 h light/12 h darkness in a climate cabinet and the activity of a compound is assessed as percent disease control compared to untreated when an appropriate level of disease damage appears in untreated check leaf disks (5-7 days after application).

Assay [3] has as its system Thanatephorus cucumeris (Rhizoctonia solani). As to the kind of experiment: Example B19: Thanatephorus cucumeris (Rhizoctonia solani)/Liquid Culture (Foot Rot, Damping-Off). Format: cell-based. Particulars: 20 ppm; liquid culture, photometrically 3-4 days after application. As to the method:
Example B19: Thanatephorus cucumeris (Rhizoctonia solani)/Liquid Culture (Foot Rot, Damping-Off)
Mycelia fragments of a newly grown liquid culture of the fungus are directly mixed into nutrient broth (PDB potato dextrose broth). After placing a (DMSO) solution of the test compounds into a microtiter plate (96-well format), the nutrient broth containing the fungal material is added. The test plates are incubated at 24° C. and the inhibition of growth is determined photometrically 3-4 days after application.

Assay [4] deals with Puccinia recondita f. sp. tritici. The experiment in a line: Example B16: Puccinia recondita f. sp. tritici/Wheat/Leaf Disc Preventative (Brown Rust). Particulars: 200 ppm, wheat leaf segments, inoculated 1 day after application. The class given is in vivo. The protocol: Example B16: Puccinia recondita f. sp. tritici/Wheat/Leaf Disc Preventative (Brown Rust)
Wheat leaf segments cv. Kanzler are placed on agar in multiwell plates (24-well format) and sprayed with the formulated test compound diluted in water. The leaf disks are inoculated with a spore suspension of the fungus 1 day after application. The inoculated leaf segments are incubated at 19° C. and 75% rh under a light regime of 12 h light/12 h darkness in a climate cabinet and the activity of a compound is assessed as percent disease control compared to untreated when an appropriate level of disease damage appears in untreated check leaf segments (7-9 days after application).

Assay [5] has as its system Mycosphaerella arachidis (Cercospora arachidicola). The experiment in a line: Example B13: Mycosphaerella arachidis (Cercospora arachidicola)/Liquid Culture (Early Leaf Spot). The class given is cell-based. Particulars: liquid culture, photometrically 4 to 5 days after application, read-out: control of Mycosphaerella arachidis. As to the method: Example B13: Mycosphaerella arachidis (Cercospora arachidicola)/Liquid Culture (Early Leaf Spot)
(§1) Conidia of the fungus from cryogenic storage are directly mixed into nutrient broth (PDB potato dextrose broth). After placing a (DMSO) solution of test compound into a microtiter plate (96-well format), the nutrient broth containing the fungal spores is added. The test plates are incubated at 24° C. and the inhibition of growth is determined photometrically 4 to 5 days after application.

In assay [6] the test system is Mycosphaerella graminicola (Septoria tritici). As to the kind of experiment: Example B21: Mycosphaerella graminicola (Septoria tritici)/Liquid Culture (Septoria Blotch). Particulars: Zymoseptoria tritici, liquid culture, photometrically 4-5 days after application, read-out: control of Mycosphaerella graminicola. The class given is cell-based. The protocol: Example B21: Mycosphaerella graminicola (Septoria tritici)/Liquid Culture (Septoria Blotch)
Conidia of the fungus from cryogenic storage are directly mixed into nutrient broth (PDB potato dextrose broth). After placing a (DMSO) solution of test compound into a microtiter plate (96-well format), the nutrient broth containing the fungal spores is added. The test plates are incubated at 24° C. and the inhibition of growth is determined photometrically 4-5 days after application.

For assay [7], the system named is Glomerella lagenarium (Colletotrichum lagenarium). As to the kind of experiment: Example B5: Glomerella lagenarium (Colletotrichum lagenarium)/Liquid Culture (Anthracnose). Format: cell-based. Particulars: Colletotrichum orbiculare, liquid culture, photometrically 3 to 4 days after application, read-out: control of Glomerella lagenarium. The protocol:
Example B5: Glomerella lagenarium (Colletotrichum lagenarium)/Liquid Culture (Anthracnose)
Conidia of the fungus from cryogenic storage are directly mixed into nutrient broth (PDB potato dextrose broth). After placing a (DMSO) solution of test compound into a microtiter plate (96-well format), the nutrient broth containing the fungal spores is added. The test plates are incubated at 24° C. and the inhibition of growth is measured photometrically 3 to 4 days after application.

In assay [8] the test system is Monographella nivalis (Microdochium nivale). As to the kind of experiment: Example B12: Monographella nivalis (Microdochium nivale)/Liquid Culture (Foot Rot Cereals). Particulars: liquid culture, photometrically 4 to 5 days after application, read-out: control of Monographella nivalis. Format: cell-based. As to the method:
Example B12: Monographella nivalis (Microdochium nivale)/Liquid Culture (Foot Rot Cereals)
as §1

For assay [9], the system named is Botryotinia fuckeliana (Botrytis cinerea). As to the kind of experiment: Example B2: Botryotinia fuckeliana (Botrytis cinerea)/Liquid Culture (Gray Mould). The class given is cell-based. Conditions: liquid culture, growth inhibition photometrically 3 to 4 days after application, read-out: control of Botryotinia fuckeliana. The protocol:
Example B2: Botryotinia fuceliana (Botrytis cinerea)/Liquid Culture (Gray Mould)
Conidia of the fungus from cryogenic storage are directly mixed into nutrient broth (Vogels broth). After placing a (DMSO) solution of test compound into a microtiter plate (96-well format), the nutrient broth containing the fungal spores is added. The test plates are incubated at 24° C. and the inhibition of growth is determined photometrically 3 to 4 days after application.

The test system of a further assay is Plasmopara viticola. Format: in vivo. Particulars: 200 ppm; grape vine leaf disks, preventative, inoculated 1 day after application.

Where only a bound is given, the exact number is not on record here.

The pest or weed control is how far the test organism was held down.

Take `Cc1c(C2CN(C(=O)c3cc(-c4ccc(F)cc4F)on3)Cc3ccccc32)cnn1C` (stereo not shown) [X.16, [5-(2,4-difluorophenyl)isoxazol-3-yl]-[4-(1,5-dimethylpyrazol-4-yl)-3,4-dihydro-1H-isoquinolin-2-yl]methanone]: the pest or weed control at 200 ppm (in the assay with Pyrenophora teres; in assay [2]) was not below 80% throughout. For the same compound, in [1], the “control of Magnaporthe grisea” value is recorded as “at least 80%”. Also, the “control of Thanatephorus cucumeris” value in assay [3] is “at least 80%”. Also, the “control of Puccinia recondita f. sp. tritici” value in assay [4] is on record as “at least 80%”. Further, the inhibition of growth at 20 ppm in assay [5], in assay [6], in assay [7], in [8] and in [9] was not below 80% in each case.

Compound `Cn1cc(C2CN(C(=O)c3noc(-c4ccccc4)n3)Cc3ccccc32)cn1` (stereo not shown) [X.17, [4-(1-methylpyrazol-4-yl)-3,4-dihydro-1H-isoquinolin-2-yl]-(5-phenyl-1,2,4-oxadiazol-3-yl)methanone] came in with a pest or weed control at 200 ppm in [2] not below 80%. In addition, the “control of Plasmopara viticola” value with Plasmopara viticola is “at least 80%”. Also, the inhibition of growth at 20 ppm in assay [5], in assay [6], in assay [8] and in assay [9] was not below 80% in each case.
